“And” between values parts separate entries of the source, which are not always exact repeats. Equal entries are not always repeated.
Assays:
[1] = tested on: HFHSD-fed obese C57BL6/J mice; assay: Diet-induced thermogenesis; type: in vivo, mouse; details: for interscapular area temperature, Average: Figure 2S left panel; for interscapular area temperature, Average / inguinal area temperature, Average / rectal temperatures, Average / inguinal area temperature / interscapular area temperature / rectal temperatures: in °C; for inguinal area temperature, Average: Figure 2S middle panel; for rectal temperatures, Average: Figure 2S right panel; for inguinal area temperature / interscapular area temperature / rectal temperatures: Figure 2S, individual mice
Description: For the cold tolerance test, 24-week-old mice with matched average body weight from the two groups were placed individually on HFHSD in a 4 °C chamber. The rectal temperature of the mice was measured after 0, 1, 2, 3, 4, 5, 6, 12, and 18 h. For measuring diet-induced thermogenesis, 24-week-old mice were fasted overnight for 18 h. Then, we measured their rectal temperature at 0, 30, 60, 90, 120, 150, 180, and 240 min after HFHSD refeeding. The rectal and surface temperature were detected by thermal probes (Physitemp Therma TH-5, ThermoWorks, Alpine and MicroTherma 2T, ThermoWorks, Alpine, respectively).

[2] = molecular target: T1, Myc-DDK-mPPARγ (Mus musculus, UniProt P37238); assay: Reciprocal co-immunoprecipitation in HEK293T cells, wild-type mPPARγ; type: binding, murine; details: 15-keto-PGE2 treated
T1 construct: host or cells: HEK293T
Description: HEK293T cells were transfected with murin PPARγ (mPPARγ) and mPPARγ C313A plasmids for immunoprecipitation, which are Myc-DDK-tagged (OriGene, USA). […] According to the manufacturer’s protocol, proteins were immunoprecipitated using Anti-FLAG® M2 Magnetic Beads (2.5 mg/ml; cat. no. F1804, Sigma-Aldrich). Subsequently, the eluted proteins were separated by SDS-PAGE and subjected to immunoblot analysis. Following separation by SDS-PAGE, proteins were stained with Coomassie blue and SYPRO-Ruby stain. The protein bands of interest were cut out for in-gel tryptic digestion followed by C18 Zip-Tip clean-up (Millipore, USA). For proteomic shotgun identifications, nanoLC-nanoESI-MS/MS analysis was performed on a nanoAcquity system (Waters, USA) connected to the LTQ Orbitrap Velos hybrid MS (Thermo Electron, USA) equipped with a PicoView nanospray interface (New Objective, USA). Samples were loaded onto a C18 BEH column (75 μm × 25 cm length, 130 Å, 1.7 μm particle size) (Waters, USA) and separated by a segmented gradient form in 60 min from 5% to 40% acetonitrile (with 0.1% formic acid) at a constant flow rate of 300 nL/min with a column temperature of 35 °C. The mass spectrometer was operated in the data-dependent mode. […] Protein identification and modification were analyzed using Mascot Daemon (Matrix Science Inc., Chicago). […]

[3] = molecular target: T2, mPPARγ LBD H351A mutant (Mus musculus, UniProt P37238, H351A); assay: Native mass spectrometry ligand binding, mPPARγ LBD H351A; set-up: species or system murine
T2 construct: mPPARγ LBD H351A mutant
Description: Wide-type mPPARγ ligand binding domain (LBD), mPPARγ LBD C313A mutant, and mPPARγ LBD H351A mutant were mixed together in a 1:1:1 molar ratio and then incubated with 15-keto-PEG2 or pioglitazone in a 1:10 molar ratio for 5 min at room temperature, respectively. The protein mixture was buffer-exchanged into 500 mM ammonium acetate buffer pH 7.5 using 7 K Zeba™ Spin Desalting Column (cat. no, 89877, Thermo) and immediately introduced into a modified Q-Exactive mass spectrometer (Thermo). The sets of optimized parameters were applied to analyze the ligand binding, including the higher-energy collisional dissociation (HCD) energy of 20 V; spray voltage, 1.1 kV; capillary temperature, 200 °C; S-lens RF level, 200; and resolution, 12,500 at m/z 400. Spectra were acquired and processed manually using Thermo Xcalibur Qual Browser (version 4.4.16.14). The relative percentage of compound-bound forms was quantified by the UniDec software and the degree of effector coupling was calculated by normalizing the relative percentage of bound forms to the sum of the percentage of unbound and bound forms.

T1 sequence (P37238 whole entry): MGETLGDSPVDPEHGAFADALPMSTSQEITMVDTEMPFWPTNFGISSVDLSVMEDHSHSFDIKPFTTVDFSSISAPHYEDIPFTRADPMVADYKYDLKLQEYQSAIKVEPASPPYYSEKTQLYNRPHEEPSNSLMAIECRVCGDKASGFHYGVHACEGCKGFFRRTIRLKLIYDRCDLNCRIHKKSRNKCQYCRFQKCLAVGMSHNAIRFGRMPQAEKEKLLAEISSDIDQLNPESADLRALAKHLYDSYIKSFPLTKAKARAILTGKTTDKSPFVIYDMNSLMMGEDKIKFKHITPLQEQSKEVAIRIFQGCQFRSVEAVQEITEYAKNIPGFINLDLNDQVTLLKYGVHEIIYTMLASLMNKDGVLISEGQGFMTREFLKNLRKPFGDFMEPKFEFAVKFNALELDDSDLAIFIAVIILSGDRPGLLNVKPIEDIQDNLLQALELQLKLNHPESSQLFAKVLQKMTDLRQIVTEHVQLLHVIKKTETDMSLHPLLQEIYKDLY
T2 sequence (P37238 238-503 H351A limits assumed): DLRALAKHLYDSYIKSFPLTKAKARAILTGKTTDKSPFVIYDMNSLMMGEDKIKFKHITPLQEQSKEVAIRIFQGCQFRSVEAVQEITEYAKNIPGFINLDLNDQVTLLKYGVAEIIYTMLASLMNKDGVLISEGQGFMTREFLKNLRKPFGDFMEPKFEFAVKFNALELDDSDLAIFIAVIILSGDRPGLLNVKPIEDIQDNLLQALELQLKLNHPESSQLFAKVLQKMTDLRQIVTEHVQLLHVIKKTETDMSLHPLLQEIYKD

Compound: CCCCCC(=O)/C=C/[C@H]1[C@H](O)CC(=O)[C@@H]1C/C=C\CCCC(=O)O [15-keto-PGE2, 15-keto-prostaglandin E2]
- interscapular, inguinal and rectal temperatures after HFHSD feeding ([1]; 40 mg/kg/day ip, vs vehicle): higher interscapular, inguinal, and rectal temperatures after HFHSD feeding
- interscapular area temperature, Average ([1]; period 0 min): 36.7067
- interscapular area temperature, Average ([1]; period 30 min): 37.7933
- interscapular area temperature, Average ([1]; period 60 min): 37.6333
- interscapular area temperature, Average ([1]; period 120 min): 37.5133
- interscapular area temperature, Average ([1]; period 180 min): 37.3533
- interscapular area temperature, Average ([1]; period 240 min): 37.1267
- inguinal area temperature, Average ([1]; period 0 min): 35.1463
- inguinal area temperature, Average ([1]; period 30 min): 36.4001
- inguinal area temperature, Average ([1]; period 60 min): 36.234
- inguinal area temperature, Average ([1]; period 120 min): 35.9052
- inguinal area temperature, Average ([1]; period 180 min): 35.7573
- inguinal area temperature, Average ([1]; period 240 min): 35.4703
- rectal temperatures, Average ([1]; period 0 min): 36.6549
- rectal temperatures, Average ([1]; period 30 min): 37.7723
- rectal temperatures, Average ([1]; period 60 min): 37.6257
- rectal temperatures, Average ([1]; period 120 min): 37.398
- rectal temperatures, Average ([1]; period 180 min): 37.3676
- rectal temperatures, Average ([1]; period 240 min): 37.1984
- inguinal area temperature ([1]; period 0 min): 35.4 and 35.2 and 34.79 and 34.8 and 34.56 and 35 and 35.185 and 35.735 and 36 and 34.735 and 35.25 and 35.645 and 34.88 and 34.815
- interscapular area temperature ([1]; period 0 min): 36.9 and 37.4 and 36.4 and 36.8 and 36.6 and 37.8 and 35.4 and 36.2 and 37
- rectal temperatures ([1]; period 0 min): 36.805 and 37.06 and 36.54 and 36.445
- inguinal area temperature ([1]; period 30 min): 36.955 and 36.815 and 36.705 and 36.42 and 36.0964 and 35.905 and 36.6 and 35.865 and 35.975 and 36.115 and 36.825 and 36.785 and 36.43 and 36.095 and 36.415
- interscapular area temperature ([1]; period 30 min): 38.1 and 38.2 and 37.6 and 37.2 and 37.5 and 37.7 and 37.9 and 37.8
- rectal temperatures ([1]; period 30 min): 38.255 and 38.275 and 37.755 and 37.72
- inguinal area temperature ([1]; period 60 min): 36.755 and 36.7 and 36.085 and 36.255 and 36.2 and 35.5 and 35.9 and 35.67 and 36.1 and 36.955 and 36.3 and 36.545 and 36.31 and 35.98
- interscapular area temperature ([1]; period 60 min): 38 and 38.3 and 37.8 and 37.5 and 37.7 and 37.4 and 37.6 and 37.2
- rectal temperatures ([1]; period 60 min): 38.085 and 37.94 and 37.88 and 37.79
- inguinal area temperature ([1]; period 120 min): 36.81 and 36.5 and 36.135 and 35.755 and 36.1679 and 35.38 and 35.6 and 35.29 and 35.4 and 36.16 and 36.2 and 35.9 and 36.075 and 35.355 and 35.85
- interscapular area temperature ([1]; period 120 min): 37.7 and 38.2 and 37.9 and 37.6 and 37.2 and 37.1 and 37.5 and 37.4 and 37.3
- rectal temperatures ([1]; period 120 min): 37.95 and 37.965 and 37.615
- inguinal area temperature ([1]; period 180 min): 36.105 and 36.3 and 36.27 and 35.585 and 35.8 and 35.3 and 35.4 and 35.7 and 36.1 and 35.765 and 35.535
- interscapular area temperature ([1]; period 180 min): 37.5 and 38.4 and 37.6 and 37.4 and 36.5 and 37.2 and 37.1 and 36.9 and 37 and 37.8
- rectal temperatures ([1]; period 180 min): 37.665 and 37.81 and 37.52
- inguinal area temperature ([1]; period 240 min): 35.995 and 36.065 and 35.575 and 35.82 and 35.715 and 35.26 and 35.2 and 35.6 and 36.2 and 35.1 and 35.12 and 34.905
- interscapular area temperature ([1]; period 240 min): 37.1 and 37.5 and 37 and 37.2 and 37.3 and 36.2 and 36.8 and 37.4 and 36.6
- rectal temperatures ([1]; period 240 min): 37.705 and 37.57 and 37.21
- co-immunoprecipitation with 15-keto-PGE2-cysteine antibody, wild-type mPPARγ [2]: A single band of PPARγ (57 kDa) was detected
- effect of H351A mutation on binding (native MS) [3]: only a minor impact on 15-keto-PGE2 binding
